Values quoted from earlier work, collected in US20160074333A1, “Pharmaceutical compositions of tamsulosin or salts thereof” (WOCKHARDT LIMITED, priority 2013, published 2016).
Structures can show the parent of a compound that is named as a salt. Where two headings read alike, the source gives them in different places.

solubility (in ethanol): slightly soluble
solubility (in ether): practically insoluble
solubility (in glacial acetic acid): slightly soluble
solubility (in methanol): sparingly soluble
solubility (in water): sparingly soluble
SMILES: CCOc1ccccc1OCCN[C@H](C)Cc1ccc(OC)c(S(N)(=O)=O)c1 [Tamsulosin hydrochloride, (-)-(R)-5-[2-[[2-(o-Ethoxyphenoxy)ethyl]amino]propyl]-2-methoxybenzene sulfonamide, monohydrochloride]
